According to US8912181B2 (Taiho Pharmaceutical Co., Ltd., priority 2011, dated 2014):

How the values were obtained:
[1] = target: human HSP90 alpha protein (N-terminal, amino acids 2 to 236) (Homo sapiens (Human), UniProt P07900); assay: Determination of HSP90-binding activity (AlphaScreen competitive assay with biotinylated geldanamycin); details: inhibition of binding of biotinylated geldanamycin to purified HSP90 N-terminal protein, read-out: HSP-binding activity IC50
Summary of the method: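 His-tagged N-terminal construct (aa 2–236) expressed in E. coli and purified was preincubated with compound 2 h at room temperature, then biotinylated geldanamycin (40 nM/well) added for 1 h. AlphaScreen nickel-chelate acceptor/streptavidin donor beads, 1 h dark; percent inhibition calculated against no-compound signal.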

SK-BR-3 cells = assay: Determination of cell growth inhibition (crystal violet staining method); assay type: cell-based; details: Homo sapiens; breast cancer cells SK-BR-3, 72 hours culture with test substance
Summary of the method: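 SK-BR-3 cells seeded 5,000/well, cultured 24 h at 37 °C, then exposed to compound for 72 h. Cells fixed with glutaraldehyde, stained with 0.05% crystal violet, eluted and read at 540 nm; percent growth inhibition calculated versus untreated wells.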

## Cn1cc(-c2cn(-c3cccc4c(-c5ccc(C(N)=O)c(NC(C)(C)C)c5)cc(C(F)(F)F)nc34)cn2)cn1 [Example 86, 2-(Tert-butylamino)-4-(8-(4-(1-methyl-1H-pyrazol-4-yl)-1H-imidazol-1-yl)-2-(trifluoromethyl)quinolin-4-yl)benzamide]
[1]
  IC50: 100 nM
SK-BR-3 cells
  IC50: 10 nM

## NC(=O)c1ccc(-c2cc(C(F)(F)F)nc3c(-n4cnc(-c5cccnc5)c4)cccc23)cn1 [Example 88, 5-(8-(4-(Pyridin-3-yl)-1H-imidazol-1-yl)-2-(trifluoromethyl)quinolin-4-yl)picolinamide]
[1]
  IC50: 350 nM
SK-BR-3 cells
  IC50: 70 nM

## CC(C)c1cc(-c2ccc(C(N)=O)c(N)c2)c2cccc(-n3cnc(-c4cnn(C)c4)c3)c2n1 [Example 113, 2-Amino-4-(2-isopropyl-8-(4-(1-methyl-1H-pyrazol-4-yl)-1H-imidazol-1-yl)quinolin-4-yl)benzamide]
[1]
  IC50: 80 nM
SK-BR-3 cells
  IC50: 10 nM

## NC(=O)c1ccc(-c2ccnc3c(-n4cnc(-c5cccnc5)c4)cccc23)cc1N [Example 133]
[1]
  IC50: 840 nM
SK-BR-3 cells
  IC50: 1320 nM

## Cc1ccc(-c2cn(-c3cccc4c(-c5ccc(C(N)=O)cc5C)cc(C(F)(F)F)nc34)cn2)cn1 [Example 100, 3-Methyl-4-(8-(4-(6-methylpyridin-3-yl)-1H-imidazol-1-yl)-2-(trifluoromethyl)quinolin-4-yl)benzamide]
[1]
  IC50: 340 nM
SK-BR-3 cells
  IC50: 260 nM

## CCc1cc(-c2ccc(C(N)=O)c(N)c2)c2cccc(-n3cnc(-c4cnn(C)c4)c3)c2n1 [Example 104, 2-Amino-4-(2-ethyl-8-(4-(1-methyl-1H-pyrazol-4-yl)-1H-imidazol-1-yl)quinolin-4-yl)benzamide]
[1]
  IC50: 60 nM
SK-BR-3 cells
  IC50: 10 nM

## Cn1cc(-c2cn(-c3cccc4c(-c5ccc(C(N)=O)c(NC(C)(C)C)c5)ccnc34)cn2)cn1 [Example 130, 2-(Tert-butylamino)-4-(8-(4-(1-methyl-1H-pyrazol-4-yl)-1H-imidazol-1-yl)quinolin-4-yl)benzamide]
[1]
  IC50: 110 nM
SK-BR-3 cells
  IC50: 60 nM

## CC(C)c1cc(-c2ccc(C(N)=O)c(N)c2)c2cccc(-c3cnc4ccccc4c3)c2n1 [Example 121, 2-Amino-4-(2′-isopropyl-3,8′-biquinolin-4′-yl)benzamide]
[1]
  IC50: 180 nM
SK-BR-3 cells
  IC50: 20 nM

## CCCNc1cc(C(N)=O)ccc1-c1cc(C(F)(F)F)nc2c(-n3cnc(-c4cnn(C)c4)c3)cccc12 [Example 87, 4-(8-(4-(1-Methyl-1H-pyrazol-4-yl)-1H-imidazol-1-yl)-2-(trifluoromethyl)quinolin-4-yl)-3-(propylamino)benzamide]
[1]
  IC50: 280 nM
SK-BR-3 cells
  IC50: 80 nM

## Cc1cc2c(-n3cnc(-c4cnn(C)c4)c3)cccc2c(-c2ccc(C(N)=O)c(NC(C)(C)C)c2)n1 [Example 93, 2-(Tert-butylamino)-4-(3-methyl-5-(4-(1-methyl-1H-pyrazol-4-yl)-1H-imidazol-1-yl)isoquinolin-1-yl)benzamide]
[1]
  IC50: 100 nM
SK-BR-3 cells
  IC50: 20 nM

## Cc1ccc(-c2cn(-c3cccc4c(-c5ccc(C(N)=O)c(N)c5)cc(C(C)C)nc34)cn2)cn1 [Example 125, 2-Amino-4-(2-isopropyl-8-(4-(6-methylpyridin-3-yl)-1H-imidazol-1-yl)quinolin-4-yl)benzamide]
[1]
  IC50: 160 nM
SK-BR-3 cells
  IC50: 10 nM

## Cn1cc(-c2cn(-c3cccc4c(-c5ccc(C(N)=O)c(NC(C)(C)C)c5)nc(C(F)(F)F)nc34)cn2)cn1 [Example 79, 2-(Tert-butylamino)-4-(8-(4-(1-methyl-1H-pyrazol-4-yl)-1H-imidazol-1-yl)-2-(trifluoromethyl)quinazolin-4-yl)benzamide]
[1]
  IC50: 320 nM
SK-BR-3 cells
  IC50: 20 nM

## Cc1cc(-c2ccc(C(N)=O)c(NC(C)(C)C)c2)c2cccc(-n3cnc(-c4cnn(C)c4)c3)c2n1 [Example 97, 2-(Tert-butylamino)-4-(2-methyl-8-(4-(1-methyl-1H-pyrazol-4-yl)-1H-imidazol-1-yl)quinolin-4-yl)benzamide]
[1]
  IC50: 160 nM
SK-BR-3 cells
  IC50: 20 nM

## NC(=O)c1ccc(-c2nccc3c(-c4cnc5ccc(CN6CCOCC6)cc5c4)cccc23)cc1NC1CCC(O)CC1 (stereo not shown) [Example 49, 2-(4-Hydroxycyclohexylamino)-4-(5-(6-(morpholinomethyl)quinolin-3-yl)isoquinolin-1-yl)benzamide]
[1]
  IC50: 1560 nM
SK-BR-3 cells
  IC50: 400 nM

## Cn1cc(-c2cn(-c3cccc4c(-c5ccc(C(N)=O)c(N)c5)nc(C(F)(F)F)nc34)cn2)cn1 [Example 4, 2-Amino-4-(8-(4-(1-methyl-1H-pyrazol-4-yl)-1H-imidazol-1-yl)-2-(trifluoromethyl)quinazolin-4-yl)benzamide]
[1]
  IC50: 340 nM
SK-BR-3 cells
  IC50: 280 nM

## Cc1cc(C(N)=O)ccc1-c1cc(C(F)(F)F)nc2c(-n3cnc(-c4cnn(C)c4)c3)cccc12 [Example 84, 3-Methyl-4-(8-(4-(1-methyl-1H-pyrazol-4-yl)-1H-imidazol-1-yl)-2-(trifluoromethyl)quinolin-4-yl)benzamide]
[1]
  IC50: 220 nM
SK-BR-3 cells
  IC50: 110 nM

## NC(=O)c1ccc(-c2nccc3c(-c4cnc5[nH]ccc5c4)cccc23)cc1NC1CCC(O)CC1 (stereo not shown) [Example 14, 4-(5-(1H-Pyrrolo[2,3-b]pyridin-5-yl)isoquinolin-1-yl)-2-(4-hydroxycyclohexylamino)benzamide]
[1]
  IC50: 1500 nM
SK-BR-3 cells
  IC50: 340 nM

## CCNc1cc(-c2cccc3c(-n4cnc(-c5cnn(C)c5)c4)ccnc23)ccc1C(N)=O [Example 119, 2-(Ethylamino)-4-(4-(4-(1-methyl-1H-pyrazol-4-yl)-1H-imidazol-1-yl)quinolin-8-yl)benzamide]
[1]
  IC50: 830 nM
SK-BR-3 cells
  IC50: 840 nM

## CCCNc1cncc(-c2cccc3c(-c4ccc(C(N)=O)c(NC5CCC(O)CC5)c4)nccc23)c1 (stereo not shown) [Example 35, 2-(4-Hydroxycyclohexylamino)-4-(5-(5-(propylamino)pyridin-3-yl)isoquinolin-1-yl)benzamide]
[1]
  IC50: 1490 nM
SK-BR-3 cells
  IC50: 460 nM

## NC(=O)c1ccc(-c2nccc3c(-c4cccnc4)cccc23)cc1NC1CCC(O)CC1 (stereo not shown) [Example 15, 2-(4-Hydroxycyclohexylamino)-4-(5-(pyridin-3-yl)isoquinolin-1-yl)benzamide]
[1]
  IC50: 140 nM
SK-BR-3 cells
  IC50: 210 nM

## NC(=O)c1ccc(-c2cc(C(F)(F)F)nc3c(-n4cnc(-c5cccnc5)c4)cccc23)cc1N [Example 78, 2-Amino-4-(8-(4-(pyridin-3-yl)-1H-imidazol-1-yl)-2-(trifluoromethyl)quinolin-4-yl)benzamide]
[1]
  IC50: 180 nM
SK-BR-3 cells
  IC50: 30 nM

## CN(CCO)CNC(=O)c1ccc(-c2nccc3c(-c4cnc5ccccc5c4)cccc23)cc1NC1CCC(O)CC1 (stereo not shown) [Example 37, 2-(4-Hydroxycyclohexylamino)-N-(((2-hydroxyethyl)(methyl)amino)methyl)-4-(5-(quinolin-3-yl)isoquinolin-1-yl)benzamide]
[1]
  IC50: 370 nM
SK-BR-3 cells
  IC50: 60 nM

## CC(C)(C)Nc1cc(-c2nccc3c(-c4cnc5ccccc5c4)cccc23)ccc1C(N)=O [Example 126, 2-(Tert-butylamino)-4-(5-(quinolin-3-yl)isoquinolin-1-yl)benzamide]
[1]
  IC50: 1530 nM
SK-BR-3 cells
  IC50: 350 nM

## CCNc1cc(-c2nc(C)cc3c(-n4cnc(-c5cnn(C)c5)c4)cccc23)ccc1C(N)=O [Example 66, 2-(Ethylamino)-4-(3-methyl-5-(4-(1-methyl-1H-pyrazol-4-yl)-1H-imidazol-1-yl)isoquinolin-1-yl)benzamide]
[1]
  IC50: 150 nM
SK-BR-3 cells
  IC50: 20 nM

## NC(=O)c1ccc(-c2nccc3c(-c4cncnc4)cccc23)cc1NC1CCC(O)CC1 (stereo not shown) [Example 43, 2-(4-Hydroxycyclohexylamino)-4-(5-(pyrimidin-5-yl)isoquinolin-1-yl)benzamide]
[1]
  IC50: 690 nM
SK-BR-3 cells
  IC50: 1100 nM

## Cc1ccc2cc(-c3cccc4c(-c5ccc(C(N)=O)c(NC6CCC(O)CC6)c5)nccc34)cnc2c1 (stereo not shown) [Example 11, 2-(4-Hydroxycyclohexylamino)-4-(5-(7-methylquinolin-3-yl)isoquinolin-1-yl)benzamide]
[1]
  IC50: 480 nM
SK-BR-3 cells
  IC50: 110 nM

## CCNc1cc(-c2cc(C(F)(F)F)nc3c(-n4cnc(-c5cnn(CC)c5)c4)cccc23)ccc1C(N)=O [Example 89, 4-(8-(4-(1-Ethyl-1H-pyrazol-4-yl)-1H-imidazol-1-yl)-2-(trifluoromethyl)quinolin-4-yl)-2-(ethylamino)benzamide]
[1]
  IC50: 220 nM
SK-BR-3 cells
  IC50: 10 nM

## NC(=O)c1ccc(-c2nccc3c(-c4cnc5nc[nH]c5c4)cccc23)cc1NC1CCC(O)CC1 (stereo not shown) [Example 12]
[1]
  IC50: 70 nM
SK-BR-3 cells
  IC50: 170 nM

## Cc1cc(-c2ccc(C(N)=O)c(N)c2)c2cccc(-n3cnc(-c4cnn(C)c4)c3)c2n1 [Example 101, 2-Amino-4-(2-methyl-8-(4-(1-methyl-1H-pyrazol-4-yl)-1H-imidazol-1-yl)quinolin-4-yl)benzamide]
[1]
  IC50: 120 nM
SK-BR-3 cells
  IC50: 120 nM
